PubChem BioAssay (NCI)
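Cultured in 96-well plates, cells were exposed to test compound for 48 hours across five concentrations. TGI denotes the concentration required for complete inhibition of growth.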

Assays:
Test in all cases: inhibition of tumour cell growth, NCI panel, 48 h
ACHN renal = tested on: ACHN renal
BT-549 breast = tested on: BT-549 breast
EKVX NSCLC = tested on: EKVX NSCLC
K-562 leukemia = tested on: K-562 leukemia
LOX IMVI melanoma = tested on: LOX IMVI melanoma
OVCAR-4 ovarian = tested on: OVCAR-4 ovarian
OVCAR-5 ovarian = tested on: OVCAR-5 ovarian
RXF 393 renal = tested on: RXF 393 renal
SK-MEL-28 melanoma = tested on: SK-MEL-28 melanoma
U251 CNS = tested on: U251 CNS
HCC-2998 colon = tested on: HCC-2998 colon
NCI-H226 lung = tested on: NCI-H226 lung
NCI-H460 lung = tested on: NCI-H460 lung
SR leukemia = tested on: SR leukemia
UACC-257 melanoma = tested on: UACC-257 melanoma

Row | SMILES | TGI (ACHN renal) | TGI (BT-549 breast) | TGI (EKVX NSCLC) | TGI (K-562 leukemia) | TGI (LOX IMVI melanoma) | TGI (OVCAR-4 ovarian) | TGI (OVCAR-5 ovarian) | TGI (RXF 393 renal) | TGI (SK-MEL-28 melanoma) | TGI (U251 CNS) | TGI (HCC-2998 colon) | TGI (NCI-H226 lung) | TGI (NCI-H460 lung) | TGI (SR leukemia) | TGI (UACC-257 melanoma)
1 | CC(CN(C)C)C(=O)c1ccccc1C(=O)O (stereo unspecified) | > 100 µM | 41.7 µM | > 100 µM | > 100 µM | > 100 µM | > 100 µM | > 100 µM | > 100 µM | > 100 µM | 38.2 µM | – | – | – | – | –
2 | Oc1[nH]c2ccccc2c1N=NC(=S)N1CCCCC1 | 5.97 µM | – | 9.75 µM | – | 3.2 µM | 4.48 µM | 21.1 µM | 2.65 µM | 12.2 µM | 7.83 µM | 8.87 µM | 5.02 µM | 2.29 µM | 4.31 µM | –
3 | CNC(C)Cc1ccccc1O (stereo unspecified) | > 100 µM | – | > 100 µM | > 100 µM | > 100 µM | > 100 µM | > 100 µM | > 100 µM | > 100 µM | > 100 µM | > 100 µM | > 100 µM | > 100 µM | > 100 µM | > 100 µM
4 | COC(=O)CCC1(C)C2CCC1(C)/C(=N/O)C2 (stereo unspecified) | > 100 µM | > 100 µM | > 100 µM | > 100 µM | – | > 100 µM | > 100 µM | > 100 µM | > 100 µM | > 100 µM | > 100 µM | > 100 µM | – | – | > 100 µM
5 | Nc1nc(N)c(C2=CCN(Cc3ccccc3)CC2)c(=O)[nH]1 | > 100 µM | > 100 µM | > 100 µM | > 100 µM | – | > 100 µM | > 100 µM | > 100 µM | > 100 µM | > 100 µM | – | > 100 µM | > 100 µM | – | > 100 µM
6 | O=c1[nH]c(=O)n(C2CC(O)C(CO)O2)cc1NN=NCCc1ccccc1 (stereo unspecified) | > 100 µM | – | > 100 µM | > 100 µM | > 100 µM | > 100 µM | > 100 µM | > 100 µM | > 100 µM | > 100 µM | – | > 100 µM | > 100 µM | > 100 µM | > 100 µM
7 | CCCCCCCC(=O)OC[C@@H](C[As](=O)(O)O)OC(=O)CCCCCCC | 25.6 µM | – | 84.4 µM | 51.4 µM | – | 28.9 µM | – | 19.3 µM | 26.6 µM | 19.9 µM | 29.2 µM | 18.6 µM | – | 40.5 µM | 35.6 µM
8 | O=S1(=O)NNC(=NCc2ccc(Cl)c(Cl)c2)c2ccccc21 | > 100 µM | – | > 100 µM | > 100 µM | > 100 µM | > 100 µM | > 100 µM | > 100 µM | – | > 100 µM | > 100 µM | > 100 µM | > 100 µM | 47.1 µM | > 100 µM
9 | COc1cc2cc[n+](C)c(Cc3ccccc3)c2cc1OC | > 100 µM | – | > 100 µM | > 100 µM | > 100 µM | > 100 µM | > 100 µM | > 100 µM | > 100 µM | > 100 µM | – | > 100 µM | > 100 µM | – | > 100 µM
10 | CC1(C)CC(=O)/C(=C/C2CCNC2=S)C(=O)N1 (stereo unspecified) | > 100 µM | – | > 100 µM | > 100 µM | > 100 µM | > 100 µM | > 100 µM | – | > 100 µM | > 100 µM | > 100 µM | > 100 µM | > 100 µM | > 100 µM | > 100 µM
11 | O=C1NCN(c2ccccc2)C12CCN(CCc1ccc3[nH]c(=S)[nH]c3c1)CC2 | > 100 µM | > 100 µM | > 100 µM | – | 36.8 µM | > 100 µM | > 100 µM | 36.5 µM | 20.3 µM | 98.4 µM | – | – | > 100 µM | – | 15.6 µM
12 | O=C1CSC(/C(=C/c2ccccc2)c2nc3ccccc3[nH]2)=N1 | > 100 µM | – | > 100 µM | > 100 µM | > 100 µM | > 100 µM | > 100 µM | – | > 100 µM | 74.4 µM | > 100 µM | 38.4 µM | > 100 µM | > 100 µM | > 100 µM
13 | CC1CC(=O)Nc2cc(Cl)ccc2N1C(=O)C1CC1 (stereo unspecified) | > 100 µM | > 100 µM | > 100 µM | > 100 µM | > 100 µM | > 100 µM | > 100 µM | > 100 µM | > 100 µM | > 100 µM | > 100 µM | > 100 µM | > 100 µM | – | > 100 µM
14 | CCN(CC)CCNc1ccc2ncn3c4c(OC)ccc(OC)c4c(=O)c1c23 | > 100 µM | – | 35.6 µM | 49.4 µM | – | – | – | 10.3 µM | 39.2 µM | 35.6 µM | 31 µM | > 100 µM | 31.3 µM | 43.6 µM | > 100 µM
